According to PubChem BioAssay (NCI):
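The compound was tested at five concentrations on cells cultured in 96-well plates, with a 48-hour exposure period. GI50 = concentration required for 50% inhibition of growth. TGI: concentration producing complete growth inhibition.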

Key:
Test in all cases: NCI anticancer screen, dose series, 48 h
[1] = tested on: MCF7 breast
[2] = tested on: SK-MEL-5 melanoma
[3] = tested on: TK-10 renal
[4] = tested on: EKVX NSCLC
[5] = tested on: MDA-MB-435
[6] = tested on: U251 CNS
[7] = tested on: MDA-MB-231 breast
[8] = tested on: IGROV1 ovarian
[9] = tested on: A498 renal
[10] = tested on: 786-0 renal

Compound | GI50 [1] | TGI [1] | GI50 [2] | TGI [2] | GI50 [3] | TGI [3] | GI50 [4] | TGI [4] | GI50 [5] | TGI [5] | GI50 [6] | TGI [6] | GI50 [7] | TGI [7] | GI50 [8] | TGI [8] | GI50 [9] | TGI [9] | GI50 [10] | TGI [10]
COc1ccc(C2=NN(C(=O)COc3ccc(Cl)cc3)C(O)(c3cc(F)c(Cl)cc3Cl)C2)cc1OC (centres undefined) | 2.18 µM | 8.21 µM | 8.29 µM | 20.9 µM | 2.36 µM | 5.09 µM | 10.5 µM | 22.8 µM | 1.62 µM | 3.48 µM | 5.69 µM | 16.6 µM | 2.41 µM | 6.53 µM | 10.2 µM | 22.2 µM | 13.1 µM | 26.2 µM | 3.31 µM | 8.9 µM
C=C1C(=O)O[C@@H]2C1C[C@@H](O)/C(C)=C/C/C=C(\C)CCC[C@H](C)[C@H]2OC(C)=O (some centres undefined) | 20 µM | 46.2 µM | 17.7 µM | 35.5 µM | 24.2 µM | 52.7 µM | 23.8 µM | 59.1 µM | 24.4 µM | 58 µM | 23.8 µM | 52.4 µM | 24.3 µM | 49.6 µM | 8.84 µM | 32.7 µM | 54 µM | > 100 µM | 18.7 µM | 34.3 µM
C=C1C[C@@H]2C/C=C/C(=O)C/C(C)=C\C=C\C(=O)O[C@H](C=O)C/C(C)=C/[C@H](C1)O2 | 0.277 µM | 13.6 µM | 2.62 µM | 16.6 µM | 3.62 µM | 18 µM | 3.68 µM | 21.2 µM | 0.316 µM | > 100 µM | 0.711 µM | 14.1 µM | 3.69 µM | 13.1 µM | 1.16 µM | 21.7 µM | > 28.5 µM | > 55.6 µM | 0.783 µM | 18.3 µM
O=C(/C=C/C=C/c1ccccc1)CCc1ccccc1 |  | > 100 µM |  | > 100 µM |  | > 100 µM |  | > 100 µM |  | > 100 µM |  | > 100 µM |  | > 100 µM |  | > 100 µM |  | > 100 µM |  | > 100 µM
Cc1cc(C)c(O)c(CNCCCCCCNCc2cc(C)cc(C)c2O)c1 | 1.54 µM | 3.22 µM | 1.61 µM | 3.09 µM | 1.39 µM | 2.92 µM | 1.74 µM | 3.65 µM | 1.43 µM | 2.81 µM | 1.58 µM | 3.07 µM | 1.38 µM | 2.9 µM | 1.68 µM | 3.49 µM | 1.32 µM | 3.15 µM | 1.42 µM | 2.92 µM
COc1c(C)c2c(c(O)c1C/C=C(\C)CCC(=O)OCCN1CCOCC1)C(=O)OC2 | 0.196 µM | > 100 µM | 0.383 µM | > 100 µM | > 24.7 µM | > 100 µM |  | > 100 µM | 0.201 µM | > 100 µM | 0.11 µM | > 100 µM | 3.48 µM | > 100 µM | 0.27 µM | > 100 µM | 0.52 µM | > 100 µM | 0.385 µM | > 100 µM
CC1(C)OC[C@@H]([C@@]2(CO[Si](C)(C)C(C)(C)C)CC=CC(=O)O2)O1 | 36.8 µM | > 100 µM | 19 µM | 36.3 µM | 18.3 µM | 40.7 µM | 26.9 µM | 63.3 µM | 22.8 µM | 57.4 µM | 31.2 µM | > 100 µM | 27.2 µM | 59.9 µM | 23.1 µM | 49.6 µM | 18.6 µM | 36.1 µM | 20.7 µM | 40.4 µM
Cc1cccc(C)c1NC(=O)/C(Cl)=C(/Cl)C(=O)O |  | 46.3 µM |  | 34.5 µM |  | 21.6 µM |  | 35.7 µM |  | 51 µM |  | 47.5 µM |  | 41.7 µM |  | 40.8 µM |  | 60.6 µM |  | 31.3 µM
